Source: patent US6444615B1, “Herbicidal imidazolidinetrione and thioxo-imidazolidinediones” (Dow AgroSciences LLC, priority 2000, dated 2002)

Assays:
[1] = tested on: Hairy Beggarticks (Bidens pilosa); experiment: Herbicidal pre-emergence test, Hairy Beggarticks; type: in vivo; details: 1200 g/ha, scale of 0-100, 0 no activity, 100 total control, about two or four weeks after application
Procedure: (§1) Listed below, a typical planting design for the test, consisting of four monocot weeds, four dicot weeds and one sedge weed. [table] For each compound, evaluation tests were carried out according to the following procedures: For preemergence tests, immediately after planting, the test compound was sprayed directly onto the soil surface. The flats or pots were placed in the greenhouse and then watered. For postemergence tests, seeds were allowed to germinate and grow for 10 to 21 days before application. The test plants were selected for uniformity, size and stage of development. The test plants were then treated with the test compound, returned to the greenhouse and watered. Untreated plants were used as a comparison. The compound to be evaluated was dissolved in an appropriate solvent, usually acetone, or a formulation of the evaluated compounds as described above, was added to the water, and sprayed over the flats or pots using a carrier volume equivalent to 187 or 468 liters per hectare to give a rate of application in grams per hectare (g/ha). About two or four weeks after application of the test compounds, the state of the plant was observed. Each species was evaluated on a scale of 0-100 in which 0 equals no activity and 100 equals total control.

[2] = tested on: Hairy Beggarticks (Bidens pilosa); experiment: Herbicidal post-emergence test, Hairy Beggarticks; type: in vivo; details: 1200 g/ha, scale of 0-100, 0 no activity, 100 total control, about two or four weeks after application
Procedure: as §1

[3] = tested on: Nightshade, (black) (Solanum nigrum); experiment: Herbicidal pre-emergence test, Nightshade (black); type: in vivo; details: 1200 g/ha, scale of 0-100, 0 no activity, 100 total control, about two or four weeks after application
Procedure: as §1

[4] = tested on: Nightshade, (black) (Solanum nigrum); experiment: Herbicidal post-emergence test, Nightshade (black); type: in vivo; details: 1200 g/ha, scale of 0-100, 0 no activity, 100 total control, about two or four weeks after application
Procedure: as §1

[5] = tested on: Smartweed, (pale) (Polygonum lapathifolium); experiment: Herbicidal pre-emergence test, Smartweed (pale); type: in vivo; details: 1200 g/ha, scale of 0-100, 0 no activity, 100 total control, about two or four weeks after application
Procedure: as §1

[6] = tested on: Smartweed, (pale) (Polygonum lapathifolium); experiment: Herbicidal post-emergence test, Smartweed (pale); type: in vivo; details: 1200 g/ha, scale of 0-100, 0 no activity, 100 total control, about two or four weeks after application
Procedure: as §1

[7] = tested on: Velvetleaf (Abutilon theophrasti); experiment: Herbicidal pre-emergence test, Velvetleaf; type: in vivo; details: 1200 g/ha, scale of 0-100, 0 no activity, 100 total control, about two or four weeks after application
Procedure: as §1

[8] = tested on: Velvetleaf (Abutilon theophrasti); experiment: Herbicidal post-emergence test, Velvetleaf; type: in vivo; details: 1200 g/ha, scale of 0-100, 0 no activity, 100 total control, about two or four weeks after application
Procedure: as §1

[9] = tested on: Barnyardgrass (Echinochloa crusgalli); experiment: Herbicidal pre-emergence test, Barnyardgrass; type: in vivo; details: 1200 g/ha, scale of 0-100, 0 no activity, 100 total control, about two or four weeks after application
Procedure: as §1

[10] = tested on: Barnyardgrass (Echinochloa crusgalli); experiment: Herbicidal post-emergence test, Barnyardgrass; type: in vivo; details: 1200 g/ha, scale of 0-100, 0 no activity, 100 total control, about two or four weeks after application
Procedure: as §1

[11] = tested on: Crabgrass (large) (Digitaria sanguinalis); experiment: Herbicidal pre-emergence test, Crabgrass (large); type: in vivo; details: 1200 g/ha, scale of 0-100, 0 no activity, 100 total control, about two or four weeks after application
Procedure: as §1

[12] = tested on: Crabgrass (large) (Digitaria sanguinalis); experiment: Herbicidal post-emergence test, Crabgrass (large); type: in vivo; details: 1200 g/ha, scale of 0-100, 0 no activity, 100 total control, about two or four weeks after application
Procedure: as §1

[13] = tested on: Foxtail, (green) (Setaria viridis); experiment: Herbicidal pre-emergence test, Foxtail (green); type: in vivo; details: 1200 g/ha, scale of 0-100, 0 no activity, 100 total control, about two or four weeks after application
Procedure: as §1

[14] = tested on: Foxtail, (green) (Setaria viridis); experiment: Herbicidal post-emergence test, Foxtail (green); type: in vivo; details: 1200 g/ha, scale of 0-100, 0 no activity, 100 total control, about two or four weeks after application
Procedure: as §1

[15] = tested on: Nutsedge, (yellow) (Cyperus esculentus); experiment: Herbicidal pre-emergence test, Nutsedge (yellow); type: in vivo; details: 1200 g/ha, scale of 0-100, 0 no activity, 100 total control, about two or four weeks after application
Procedure: as §1

[16] = tested on: Nutsedge, (yellow) (Cyperus esculentus); experiment: Herbicidal post-emergence test, Nutsedge (yellow); type: in vivo; details: 1200 g/ha, scale of 0-100, 0 no activity, 100 total control, about two or four weeks after application
Procedure: as §1

[17] = tested on: Perennial Ryegrass (Lolium perenne); experiment: Herbicidal pre-emergence test, Perennial Ryegrass; type: in vivo; details: 1200 g/ha, scale of 0-100, 0 no activity, 100 total control, about two or four weeks after application
Procedure: as §1

[18] = tested on: Perennial Ryegrass (Lolium perenne); experiment: Herbicidal post-emergence test, Perennial Ryegrass; type: in vivo; details: 1200 g/ha, scale of 0-100, 0 no activity, 100 total control, about two or four weeks after application
Procedure: as §1

melting point | Compound | Herbicidal Activity BID (pre-emergence) [1] | Herbicidal Activity BID (post-emergence) [2] | Herbicidal Activity NS (pre-emergence) [3] | Herbicidal Activity NS (post-emergence) [4] | Herbicidal Activity SMT (pre-emergence) [5] | Herbicidal Activity SMT (post-emergence) [6] | Herbicidal Activity VEL (pre-emergence) [7] | Herbicidal Activity VEL (post-emergence) [8] | Herbicidal Activity BYG (pre-emergence) [9] | Herbicidal Activity BYG (post-emergence) [10] | Herbicidal Activity CRB (pre-emergence) [11] | Herbicidal Activity CRB (post-emergence) [12] | Herbicidal Activity FOX (pre-emergence) [13] | Herbicidal Activity FOX (post-emergence) [14] | Herbicidal Activity NUT (pre-emergence) [15] | Herbicidal Activity NUT (post-emergence) [16] | Herbicidal Activity RYE (pre-emergence) [17] | Herbicidal Activity RYE (post-emergence) [18]
130 to 140 °C | O=C1NC(=O)N(C2(OC3CC(F)CC3Cl)C=CC=CC2)C1=O (centres unmarked) [Compound 2, 1-(2-fluoro-4-chloro-5-cyclopentyloxy)phenyl-2,4,5-imidazolidinetrione] | – | – | – | – | – | – | – | – | – | – | – | – | – | – | – | – | – | –
90 to 91 °C | COCC1(N2C(=O)NC(=O)C2=O)C=CC=C(OC2CC(F)CC2Cl)C1 (centres unmarked) [Compound 5, 1-methoxymethyl-3-(2-fluoro-4-chloro-5-cyclopentyloxy)phenyl-2,4,5-imidazolidinetrione] | – | – | – | – | – | – | – | – | – | – | – | – | – | – | – | – | – | –
– | C#CCN1C(=O)COc2cc(F)c(N3C(=O)C(=O)N(C)C3=O)cc21 [Compound 22] | 95 | 80 | 95 | 100 | 85 | 90 | 40 | 100 | 40 | 60 | 100 | 40 | 100 | 80 | 0 | 60 | 0 | 30
– | C#CCN1C(=O)COc2cc(F)c(N3C(=O)C(=O)N(CCC)C3=O)cc21 [Compound 23, 1-n-propyl-3-[7-fluoro-4-(2-propynyl)-2ZH-1,4-benzoxazin-3(4H)-one-6-]-2,4,5-imidazlidinetrione] | 100 | 95 | 100/100 | 100/100 | 100 | 95 | 100/100 | 100/100 | 100 | 60 | 100 | 0 | 100 | 60 | 95 | 40 | 90 | 0
– | C#CCN1C(=O)COc2cc(F)c(N3C(=O)C(=O)N(CC(F)(F)F)C3=O)cc21 [Compound 24] | 0 | 40 | 0 | 60 | 0 | 40 | 0 | 60 | 0/0 | 0/0 | 0/0 | 0/0 | 0/0 | 0/0 | 0/0 | 0/0 | 0/0 | 0/0
– | C#CCN1C(=O)COc2cc(F)c(N3C(=O)C(=O)N(CCC)C3=S)cc21 [Compound 25] | 100/100 | 100/100 | 100/100 | 100/100 | 100/100 | 100/100 | 100/100 | 100/100 | 100 | 30 | 100 | 30 | 100 | 60 | 80 | 40 | 85 | 0
– | CCCN1C(=O)C(=O)N(c2cc(F)c(F)cc2F)C1=O [Compound C1, reference compound] | 0 | 40 | 0 | 80 | 0 | 60 | 0 | 60 | 0/0 | 0/0 | 0/0 | 0/0 | 0/0 | 0/0 | 0/0 | 0/0 | 0/0 | 0/0
